The values below come from article PMC10650850, “Discovery, Structure–Activity Relationship and In Vitro Anticancer Activity of Small-Molecule Inhibitors of the Protein–Protein Interactions between AF9/ENL and AF4 or DOT1L” (Cancers, 2023).

For this assay, the target named is T1, AF9-DOT1L interaction (Homo sapiens, UniProt P42568).
T1 construct: human AF9 AHD domain (475–568); made in house; host or cells: E. coli BL21(DE3)
T1 sequence (P42568 475-568): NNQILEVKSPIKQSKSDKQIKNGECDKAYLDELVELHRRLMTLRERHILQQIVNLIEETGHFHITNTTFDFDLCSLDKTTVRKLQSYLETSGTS
The assay can be described thus: AlphaLisa assay, AF9-DOT1L interaction. The format is binding. The following applies: for inhibition at 5 µM: compound at 5 μM, read-out: % Inhibition at 5 μM against the AF9-DOT1L interaction; for IC50: MBP-protein 5 nM, biotinylated peptide 40 nM, 3 independent experiments with standard deviation, read-out: IC50 (μM) against the AF9-DOT1L interaction. An excerpt:
An AlphaLisa assay we previously developed was used for compound screening for inhibitors of the AF9-DOT1L interaction. The PPI takes the DOT1L-peptide coated donor beads and AF9 AHD coated acceptor beads together. The donor beads are illuminated with a laser beam (680 nm) to generate singlet oxygen radicals, which activate the adjacent acceptor beads to produce luminescence at 615 nm. When a compound can disrupt such PPI and separate the donor and acceptor beads, the highly unstable radicals are rapidly quenched by water without generating luminescence.
The cDNA for the human AF9 AHD domain (475–568) and ENL AHD domain (489–559) was synthesized (by Genscript, Piscataway, NJ, USA) and inserted into the pMAL c5X expression plasmid. The DOT1L peptide (Biotin-AHX-[…]) and AF4 peptide (Biotin-AHX-[…]) for the Alpha assay were purchased from Genscript.
Alpha assays were developed in our previous publication, using a Perkin-Elmer AlphaLisa anti-MBP kit, which contains streptavidin donor beads and anti-MBP acceptor beads. Briefly, the assay was performed using a MBP-protein (5 nM), a biotinylated peptide (40 nM), and increasing concentrations of a compound in 25 µL buffer (PBS with 0.5% BSA, pH 7.5) in 384-well plates according to the manufacturer’s protocol and measured with a Tecan SPARK microplate reader. Data were imported into Prism (version 5.0), and IC50 values from 3 independent experiments with standard deviation were obtained by using a standard dose-response curve fitting.
Background: Alpha assays give light when donor and acceptor beads are brought close together.

Structures can show the parent of a compound that is named as a salt.

For the compound `O=C(NCC1CCNCC1)c1cc2ccc(-c3ccc(Cl)cc3)cc2s1` [Compound 48, 6-(4-Chlorophenyl)-N-(piperidin-4-ylmethyl)-benzo[b]thiophene-2-carboxamide hydrochloride], the inhibition at 5 µM was around 50%.
Same read-out and setting: the result for `O=C(NCC1CCNCC1)c1cc2ccc(N3CCC(N4CCCCC4)CC3)cc2s1` [Compound 31] reads 14%.
On to `O=C(NCC1CCNCC1)c1cc2ccc(Nc3ccc(N4CCCCC4)cc3)cc2s1` [Compound 35, 6-((4-(Piperidin-1-yl)phenyl)amino)-N-(piperidin-4-ylmethyl)-benzo[b]thiophene-2-carboxamide hydrochloride], for which the IC50 was found to be 2.3 ± 0.2 µM.
`COc1ccc(Oc2ccc3cc(C(=O)NCC4CCNCC4)oc3c2)cc1` [Compound 76, 6-(4-Methoxylphenoxyl)-N-(piperidin-4-ylmethyl)-benzofuran-2-carboxamide hydrochloride]: the inhibition at 5 µM was 24%.
In the case of `O=C(NCC1CCNCC1)c1cc2ccc(-c3ccc(CO)cc3)cc2s1` [Compound 39, 6-(4-(Hydroxylmethyl)phenyl)-N-(piperidin-4-ylmethyl)-benzo[b]thiophene-2-carboxamide hydrochloride], the inhibition at 5 µM came to 0%.
Same read-out and setting: the figure for `O=C(NCC1CCNCC1)c1cc2ccc(Nc3ccc(OC(F)(F)F)cc3)cc2o1` [Compound 75, 6-((4-Trifuluoromethoxyl)phenyl)amino)-N-(piperidin-4-ylmethyl)-benzofuran-2-carboxamide hydrochloride] is 23%.
For `O=C(NCC1CCNCC1)c1cc2ccc(-c3ccc(N4CCOCC4)cc3)cc2o1` [Compound 58, 6-(4-Morpholinophenyl)-N-(piperidin-4-ylmethyl)-benzofuran-2-carboxamide hydrochloride], the inhibition at 5 µM turned out to be 40%.
The same measure, in the same setting: the result for `O=C(NCC1CCNCC1)c1cc2ccc(-c3ccc(OC(F)(F)F)cc3)cc2s1` [Compound 44, 6-(4-Trifluoromethoxylphenyl)-N-(piperidin-4-ylmethyl)-benzo[b]thiophene-2-carboxamide hydrochloride] reads 14%.
`O=C(NCC1CCNCC1)c1cc2ccc(-c3ccc(N4CCCC4)cc3)cc2[nH]1` [Compound 3, 6-(4-(1-Pyrrolinylphenyl)-N-(piperidin-4-ylmethyl)-1H-indole-2-carboxamide hydrochloride]: the IC50 is 2.8 ± 0.2 µM.
Regarding `O=C(NCC1CCNCC1)c1cc2ccc(-c3ccc(-c4ccccc4)cc3)cc2o1` [Compound 67, 6-((1,1′-Biphenyl)-4-yl)-N-(piperidin-4-ylmethyl)-benzofuran-2-carboxamide hydrochloride], the inhibition at 5 µM was 0%.
As to `O=C(NCC1CCNCC1)c1cc2ccc(-c3ccc(N4CCNCC4)cc3)cc2[nH]1` [Compound 5], the inhibition at 5 µM was 40%.
Same read-out and setting: the result for `O=C(NCC1CCNCC1)c1cc2ccc(-c3ccc(F)cc3)cc2s1` [Compound 49, 6-(4-Fluorophenyl)-N-(piperidin-4-ylmethyl)-benzo[b]thiophene-2-carboxamide hydrochloride] reads 21%; that for `COc1ccc(-c2ccc3cc(C(=O)NCC4CCNCC4)sc3c2)cc1` [Compound 45, 6-(4-Methoxylphenyl)-N-(piperidin-4-ylmethyl)-benzo[b]thiophene-2-carboxamide hydrochloride], 43%; that for `CC(=O)Nc1ccc(-c2ccc3cc(C(=O)NCC4CCNCC4)sc3c2)cc1` [Compound 38, 6-(4-(Acetamido)phenyl)-N-(piperidin-4-ylmethyl)-benzo[b]thiophene-2-carboxamide hydrochloride], 0%.
Still for that read-out and setting: the result for `O=C(NCC1CCNCC1)c1cc2cc(-c3ccc(C(=O)N4CCCCC4)cc3)ccc2s1` [Compound 51, 5-(4-(Piperidine-1-carbonyl)phenyl)-N-(piperidin-4-ylmethyl)-benzo[b]thiophene-2-carboxamide hydrochloride] reads 31%; that for `CS(=O)(=O)c1ccc(-c2ccc3cc(C(=O)NCC4CCNCC4)sc3c2)cc1` [Compound 43, 6-(4-(Methylsulfonyl)phenyl)-N-(piperidin-4-ylmethyl)-benzo[b]thiophene-2-carboxamide hydrochloride], 49%.
For `O=C(NCC1CCNCC1)c1cc2ccc(-c3ccc(C(=O)N4CCC(N5CCCCC5)CC4)cc3)cc2o1` [Compound 66, 6-(4-((1,4′-Bipiperidine-1-yl)carbonyl)phenyl)-N-(piperidin-4-ylmethyl)-benzofuran-2-carboxamide hydrochloride], the inhibition at 5 µM worked out at 0%.
With `CC(=O)c1ccc(-c2ccc3cc(C(=O)NCC4CCNCC4)[nH]c3c2)cc1` [Compound 8, 6-(4-Acetophenyl)-N-(piperidin-4-ylmethyl)-1H-indole-2-carboxamide hydrochloride], the inhibition at 5 µM is 37%.
`Cl.O=C(NCC1CCNCC1)c1cc2ccc(-c3ccc(C(=O)N4CCC(N5CCCC5)CC4)cc3)cc2s1` [Compound 34, 6-(4-(4-(Pyrrolidin-1-yl)piperidin-1-carbonyl)phenyl)-N-(piperidin-4-ylmethyl)-benzo[b]thiophene-2-carboxamide hydrochloride]: the “Inhibitory activity against the AF9-DOT1L interaction (in words)” value was “inactive” and the inhibition at 5 µM came out at 5%.
On to `Cc1cc(C#N)ccc1-c1ccc2[nH]c(C(=O)NCC3CCNCC3)cc2c1` [Compound 21], for which the inhibition at 5 µM was found to be 0%.
Still for that read-out and setting: the result for `O=C(NCC1CCNCC1)c1cc2ccc(-c3ccc(CCO)cc3)cc2[nH]1` [Compound 7] reads 5.6%; that for `O=C(NCC1CCNCC1)c1c[nH]c2cc(-c3ccc(N4CCOCC4)cc3)ccc12` [Compound 13, 6-(4-(Morpholinophenyl)-N-(piperidin-4-ylmethyl)-1H-indole-3-carboxamide hydrochloride], 29%.
On the same count and under the same terms, the result for `O=C(NCC1CCNCC1)c1cc2ccc(-c3ccc(C(=O)N4CCCCCC4)cc3)cc2o1` [Compound 65, 6-(4-((Azepane-1-yl)carbonyl)phenyl)-N-(piperidin-4-ylmethyl)-benzofuran-2-carboxamide hydrochloride] reads 0%; that for `CN1CCN(c2ccc(-c3ccc4cc(C(=O)NCC5CCNCC5)oc4c3)cc2)CC1` [Compound 60, 6-(4-(4-Methylpiperazin-1-yl)phenyl)-N-(piperidin-4-ylmethyl)-benzofuran-2-carboxamide hydrochloride], 32%; that for `CC(C)(C)c1ccc(-c2ccc3cc(C(=O)NCC4CCNCC4)sc3c2)cc1` [Compound 40, 6-(4-(Tert-butyl)phenyl)-N-(piperidin-4-ylmethyl)-benzo[b]thiophene-2-carboxamide hydrochloride], 19%.
For `O=C(NCC1CCNCC1)c1cc2ccc(-c3ccc4c(c3)OCCO4)cc2o1` [Compound 69, 6-(2,3-Dihydrobenzo[b][1,4]dioxin-6-yl)-N-(piperidin-4-ylmethyl)-benzofuran-2-carboxamide hydrochloride], the inhibition at 5 µM is 33%.
Still for that read-out and setting: the figure for `O=C(NCC1CCNCC1)c1cc2cc(Nc3ccc(OC(F)(F)F)cc3)ccc2s1` [Compound 56, 5-((4-(Trifluoromethoxyl)phenyl)amino)-N-(piperidin-4-ylmethyl)-benzo[b]thiophene-2-carboxamide hydrochloride] is 24%.

Broadly, the inhibition is the drop in the measured response relative to a control, in per cent. The IC50 is the concentration that inhibits the measured activity by half.
